{"source": "patent US20170291905A1", "about": "“ARGININE […] INHIBITORS AND USES THEREOF” (Epizyme, Inc., priority 2014, published 2017)"}
{"biological_target": "full-length human PRMT6 (Flag- and His-tagged) (Homo sapiens, UniProt Q96LA8)", "sequence (Q96LA8 with tags, fused parts or gaps)": "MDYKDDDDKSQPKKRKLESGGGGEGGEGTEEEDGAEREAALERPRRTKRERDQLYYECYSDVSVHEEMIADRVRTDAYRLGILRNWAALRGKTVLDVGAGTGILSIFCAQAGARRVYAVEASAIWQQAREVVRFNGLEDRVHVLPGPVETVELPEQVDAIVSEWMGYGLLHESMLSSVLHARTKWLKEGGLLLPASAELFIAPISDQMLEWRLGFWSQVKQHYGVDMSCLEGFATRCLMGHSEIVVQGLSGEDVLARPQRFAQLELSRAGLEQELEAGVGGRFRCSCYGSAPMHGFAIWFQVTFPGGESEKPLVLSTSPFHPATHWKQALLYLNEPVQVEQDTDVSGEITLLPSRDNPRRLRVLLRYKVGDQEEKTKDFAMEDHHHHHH", "assay": "PRMT6 biochemical assay (3H-SAM Flashplate, histone H4 36-50 K44me1 peptide)", "details": "1 nM PRMT6, 30 min preincubation, 75 nM peptide", "in_short": "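Flag/His-tagged full-length PRMT6 (1 nM) pre-incubated 30 min RT with compound in 20 mM Bicine pH 7.6, then given 200 nM 3H-SAM, 250 nM cold SAM and 75 nM biotinylated H4 36-50 K44me1 peptide. Methylated peptide captured on streptavidin Flashplates and counted; % inhibition versus DMSO and 1 mM SAH controls, fitted to 3- or 4-parameter curves.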", "units": {"IC50": "nM"}}
{"smiles": "CNCCN(C)Cc1c[nH]nc1C1CCC(CO)(CO)CC1", "note": "[compound 44, (4-(4-((methyl(2-(methylamino)ethyl)amino)methyl)-1H-pyrazol-3-yl)cyclohexane-1,1-diyl)dimethanol]", "IC50": 21.5}
{"smiles": "CCOCCOCC1(COCCOCC)CCC(c2n[nH]cc2CN(C)CCNC)CC1", "note": "[compound 39, N1-((3-(4,4-bis((2-ethoxyethoxy)methyl)cyclohexyl)-1H-pyrazol-4-yl)methyl)-N1,N2-dimethylethane-1,2-diamine]", "IC50": 42}
{"smiles": "CNCCN(C)Cc1c[nH]nc1C1CCC(COC)(COCC2CCOCC2)CC1", "note": "(stereo not drawn) [compound 45]", "IC50": 53.7}
{"smiles": "CN(C)CCN(C)Cc1c[nH]nc1[C@H]1CC[C@]2(CC1)CC(C)(C)CO2", "note": "[compound 43, N1-((3-((5r,8r)-3,3-dimethyl-1-oxaspiro[4.5]decan-8-yl)-1H-pyrazol-4-yl)methyl)-N1,N2,N2-trimethylethane-1,2-diamine]", "IC50": 288}
{"smiles": "CC[C@H]1CC[C@@H](c2n[nH]cc2CN(C)CCNC)CC1", "note": "[compound 1]", "IC50": 10.2}
{"smiles": "CNCCN(C)Cc1ccnn1[C@H]1CC[C@@]2(CC1)CC(C)(C)CO2", "note": "[compound 49, N1-((1-((5s,8s)-3,3-dimethyl-1-oxaspiro[4.5]decan-8-yl)-1H-pyrazol-5-yl)methyl)-N1,N2-dimethylethane-1,2-diamine]", "IC50": 128}
{"smiles": "CCC1(CC)C[C@]2(CC[C@H](c3n[nH]cc3CN(C)CCNC)CC2)NC1=O", "note": "[compound 47, (5s,8s)-3,3-diethyl-8-(4-((methyl(2-(methylamino)ethyl)amino)methyl)-1H-pyrazol-3-yl)-1-azaspiro[4.5]decan-2-one]", "IC50": 15.8}
{"smiles": "CNCCN(C)Cc1c[nH]nc1C1CCC(COCC2CC2)(COCC2CC2)CC1", "note": "[compound 41, N1-((3-(4,4-bis((cyclopropylmethoxy)methyl)cyclohexyl)-1H-pyrazol-4-yl)methyl)-N1,N2-dimethylethane-1,2-diamine]", "IC50": 6.94}
{"smiles": "CNCCN(C)Cc1c[nH]nc1C1=CCC2(CC1)CC(C)(C)CO2", "note": "(stereo not drawn) [compound 46, N1-((3-(3,3-dimethyl-1-oxaspiro[4.5]dec-7-en-8-yl)-1H-pyrazol-4-yl)methyl)-N1,N2-dimethylethane-1,2-diamine]", "IC50": 59.7}
{"smiles": "CCC1(CC)C[C@]2(CC[C@@H](c3n[nH]cc3CN(C)CCNC)CC2)NC1=O", "note": "[compound 48, (5r,8r)-3,3-diethyl-8-(4-((methyl(2-(methylamino)ethyl)amino)methyl)-1H-pyrazol-3-yl)-1-azaspiro[4.5]decan-2-one]", "IC50": 73.6}
{"smiles": "CNCCN(C)Cc1c[nH]nc1C1CCC(COCCC2CCOCC2)(COCCC2CCOCC2)CC1", "note": "[compound 40]", "IC50": 37.4}
{"smiles": "CN(C)CCN(C)Cc1c[nH]nc1[C@H]1CC[C@@]2(CC1)CC(C)(C)CO2", "note": "[compound 42, N1-((3-((5S,8S)-3,3-dimethyl-1-oxaspiro[4.5]decan-8-yl)-1H-pyrazol-4-yl)methyl)-N1,N2,N2-trimethylethane-1,2-diamine]", "IC50": 90.9}
